Test results reported in patent publication US9067894B1, “Compound, composition, and method of activating GIRK potassium channel and use of same for treating conditions of interest” (Vanderbilt University, priority 2013, dated 2015).
“Also recorded” adds a separate entry of the source.

Assays:
[1] = target: T1, GIRK2/3 (Homo sapiens, UniProt P48051+Q92806); assay: Thallium flux assay, HEK-293 cells expressing GIRK2/3; assay type: cell-based; settings: cell line GIRK2-3
T1 construct: expressed in transfected cells; host or cells: HEK-293
T1 sequence (P48051 1-423): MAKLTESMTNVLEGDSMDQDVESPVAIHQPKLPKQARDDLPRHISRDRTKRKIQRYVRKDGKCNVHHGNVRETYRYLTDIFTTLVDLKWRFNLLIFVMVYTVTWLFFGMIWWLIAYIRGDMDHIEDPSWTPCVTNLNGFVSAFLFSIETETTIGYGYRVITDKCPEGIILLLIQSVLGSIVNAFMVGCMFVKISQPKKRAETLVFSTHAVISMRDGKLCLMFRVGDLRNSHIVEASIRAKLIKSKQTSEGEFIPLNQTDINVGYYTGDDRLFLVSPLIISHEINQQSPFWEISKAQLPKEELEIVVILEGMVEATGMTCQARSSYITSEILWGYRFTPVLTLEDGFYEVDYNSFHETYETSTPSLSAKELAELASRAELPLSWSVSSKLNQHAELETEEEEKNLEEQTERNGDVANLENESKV
T1 sequence (Q92806 1-393): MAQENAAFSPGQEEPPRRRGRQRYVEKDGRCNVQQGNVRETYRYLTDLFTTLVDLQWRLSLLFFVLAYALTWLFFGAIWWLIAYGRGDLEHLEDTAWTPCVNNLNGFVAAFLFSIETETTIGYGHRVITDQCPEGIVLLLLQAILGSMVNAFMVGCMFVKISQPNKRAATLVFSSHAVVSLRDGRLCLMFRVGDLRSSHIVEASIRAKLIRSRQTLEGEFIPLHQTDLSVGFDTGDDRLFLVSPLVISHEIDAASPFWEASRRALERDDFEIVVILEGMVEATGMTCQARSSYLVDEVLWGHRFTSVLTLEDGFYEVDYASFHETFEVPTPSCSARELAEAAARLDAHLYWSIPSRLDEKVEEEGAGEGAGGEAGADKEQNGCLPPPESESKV
Source text: Cell Line Construction and Cell Culture. HEK-293 cells co-expressing human GIRK1/2 and rat mGlu8 were generated as previously described (Niswender et al., 2008). A HEK-293 cell line (ATCC, Manassas, Va.) expressing human GIRK1 and human GIRK2 was constructed by transfecting HEK-293 cells with GIRK1 and GIRK2 (Origene, Rockville, Md.) cloned into the pBudCE4.1 vector (Life Technologies, Carlsbad, Calif.) using FuGene 6 (Promega, Madison, Wis.) transfection reagent. Unless otherwise noted, other ion channel-expressing cells were prepared by transfecting HEK-293 cells with individual or combinations of subunits: GIRK1, pCMV6-A-BSD; GIRK2, pCMV6-A-puro; GIRK3, pCMV6-A-hygro; GIRK4, pCMV6-A-AC; Kv7.4, pIRESneo3. The Kir2.1 and hERG-expressing cell lines were made by transfecting T-REx-293 cells (Life Technologies, Carlsbad, Calif.) with Kir2.1 and Kv11.1, respectively, cloned into pcDNA5TO. Monoclonal cell lines were produced by limiting-dilution cloning of antibiotic-resistant cells and functional selection using the thallium flux assay described below. Unless otherwise noted, cells were maintained in Minimal Essential Medium, Alpha Medium (Mediatech, Manassas, Va.) supplemented with 10% fetal bovine serum (Sigma-Aldrich, Saint Louis, Mo.) and GlutaGro (Mediatech, Manassas, Va.), referred to henceforth as cell culture medium. […]

[2] = target: T2, Bradykinin B2 (Homo sapiens, UniProt P30411); assay: Radioligand displacement (Ricerca); assay type: binding
T2 construct: Ricerca
T2 sequence (P30411 whole entry): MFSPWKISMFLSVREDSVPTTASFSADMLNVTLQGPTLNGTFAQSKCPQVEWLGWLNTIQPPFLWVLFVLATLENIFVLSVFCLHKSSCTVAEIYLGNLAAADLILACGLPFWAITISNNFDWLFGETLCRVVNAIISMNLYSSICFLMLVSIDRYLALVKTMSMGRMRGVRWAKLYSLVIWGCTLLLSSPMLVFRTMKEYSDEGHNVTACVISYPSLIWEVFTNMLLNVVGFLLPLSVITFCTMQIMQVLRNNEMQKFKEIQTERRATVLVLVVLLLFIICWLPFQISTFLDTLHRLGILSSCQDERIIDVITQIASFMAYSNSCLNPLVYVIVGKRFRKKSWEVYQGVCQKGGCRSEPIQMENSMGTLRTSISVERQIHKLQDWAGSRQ

[3] = target: T3, Endothelin ETA (Homo sapiens, UniProt P25101); assay: Radioligand displacement (Ricerca); assay type: binding
T3 construct: Ricerca
T3 sequence (P25101 21-427): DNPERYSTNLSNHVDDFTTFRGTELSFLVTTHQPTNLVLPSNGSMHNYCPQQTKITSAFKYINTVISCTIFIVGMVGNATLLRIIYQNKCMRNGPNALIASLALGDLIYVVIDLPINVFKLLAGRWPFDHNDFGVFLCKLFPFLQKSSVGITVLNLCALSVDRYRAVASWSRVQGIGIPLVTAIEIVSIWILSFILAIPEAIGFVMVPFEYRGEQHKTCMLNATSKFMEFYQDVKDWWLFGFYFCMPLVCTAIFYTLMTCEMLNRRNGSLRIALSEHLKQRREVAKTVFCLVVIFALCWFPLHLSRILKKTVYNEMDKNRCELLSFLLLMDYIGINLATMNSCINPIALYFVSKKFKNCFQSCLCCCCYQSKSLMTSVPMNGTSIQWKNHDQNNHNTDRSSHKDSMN

[4] = target: T4, Histamine H2 (Homo sapiens, UniProt P25021); assay: Radioligand displacement (Ricerca); assay type: binding
T4 construct: Ricerca (contract laboratory that ran the panel)
T4 sequence (P25021 whole entry): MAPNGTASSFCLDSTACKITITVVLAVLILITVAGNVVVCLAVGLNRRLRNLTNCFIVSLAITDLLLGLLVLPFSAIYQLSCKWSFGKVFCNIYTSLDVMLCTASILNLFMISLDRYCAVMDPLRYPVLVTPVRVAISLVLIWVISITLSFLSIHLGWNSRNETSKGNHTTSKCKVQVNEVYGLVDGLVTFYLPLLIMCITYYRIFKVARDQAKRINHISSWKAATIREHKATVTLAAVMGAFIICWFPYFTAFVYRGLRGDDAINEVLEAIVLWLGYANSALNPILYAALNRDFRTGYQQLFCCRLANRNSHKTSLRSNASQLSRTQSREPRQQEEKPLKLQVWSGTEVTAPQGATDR

[5] = target: T5, Muscarinic M2 (Homo sapiens, UniProt P08172); assay: Radioligand displacement (Ricerca); assay type: binding
T5 construct: Ricerca (contract laboratory that ran the panel)
T5 sequence (P08172 whole entry): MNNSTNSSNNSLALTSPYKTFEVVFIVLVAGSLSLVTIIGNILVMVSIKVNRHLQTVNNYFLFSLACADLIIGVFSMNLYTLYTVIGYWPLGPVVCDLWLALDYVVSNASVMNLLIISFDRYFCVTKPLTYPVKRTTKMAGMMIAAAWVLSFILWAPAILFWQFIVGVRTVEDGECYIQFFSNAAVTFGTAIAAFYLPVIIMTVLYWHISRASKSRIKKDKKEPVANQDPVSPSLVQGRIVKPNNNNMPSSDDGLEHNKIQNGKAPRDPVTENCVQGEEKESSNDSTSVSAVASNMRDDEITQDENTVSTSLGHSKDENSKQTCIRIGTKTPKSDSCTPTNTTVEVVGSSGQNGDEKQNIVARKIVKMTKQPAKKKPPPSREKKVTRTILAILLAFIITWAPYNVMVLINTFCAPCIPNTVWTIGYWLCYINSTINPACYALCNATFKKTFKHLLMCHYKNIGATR

[6] = target: T6, Prostanoid EP4 (Homo sapiens, UniProt P35408); assay: Radioligand displacement (Ricerca); assay type: binding
T6 construct: Ricerca (contract laboratory that ran the panel)
T6 sequence (P35408 whole entry): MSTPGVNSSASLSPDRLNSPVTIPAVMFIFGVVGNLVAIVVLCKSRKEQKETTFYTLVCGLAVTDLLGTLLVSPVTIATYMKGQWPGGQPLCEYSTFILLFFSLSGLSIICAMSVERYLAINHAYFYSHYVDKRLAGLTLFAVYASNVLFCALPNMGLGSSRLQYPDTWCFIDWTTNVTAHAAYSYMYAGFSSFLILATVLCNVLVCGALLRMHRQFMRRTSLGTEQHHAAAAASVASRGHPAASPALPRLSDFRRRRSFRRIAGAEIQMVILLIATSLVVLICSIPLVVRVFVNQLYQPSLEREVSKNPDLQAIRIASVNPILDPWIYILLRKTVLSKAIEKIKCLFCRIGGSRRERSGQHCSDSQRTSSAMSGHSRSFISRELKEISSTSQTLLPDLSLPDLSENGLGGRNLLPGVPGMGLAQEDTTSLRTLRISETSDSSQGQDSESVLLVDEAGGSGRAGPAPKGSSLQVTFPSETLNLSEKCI

[7] = target: T7, Tachykinin NK1 (Homo sapiens, UniProt P25103); assay: Radioligand displacement (Ricerca); assay type: binding
T7 construct: Ricerca (contract panel)
T7 sequence (P25103 whole entry): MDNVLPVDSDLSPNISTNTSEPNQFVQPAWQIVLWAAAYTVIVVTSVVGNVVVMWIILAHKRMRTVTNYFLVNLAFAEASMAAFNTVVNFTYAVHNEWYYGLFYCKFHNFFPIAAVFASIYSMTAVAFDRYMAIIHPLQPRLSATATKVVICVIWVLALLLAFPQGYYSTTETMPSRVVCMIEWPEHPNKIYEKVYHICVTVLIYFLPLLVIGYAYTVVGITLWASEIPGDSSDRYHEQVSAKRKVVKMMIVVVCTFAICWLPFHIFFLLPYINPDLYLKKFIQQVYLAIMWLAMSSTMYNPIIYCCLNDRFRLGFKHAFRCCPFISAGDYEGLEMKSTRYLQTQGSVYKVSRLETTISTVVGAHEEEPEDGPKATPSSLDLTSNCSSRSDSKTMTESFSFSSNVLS

[8] = target: T8, Transporter, GABA (Rattus norvegicus, UniProt P23978); assay: Radioligand displacement (Ricerca); assay type: binding
T8 construct: Ricerca (contract panel)

## Cc1cc(NC(=O)Nc2ccc(F)c(F)c2)n(-c2ccccc2)n1 [VU0456810, 1-(3,4-difluorophenyl)-3-(3-methyl-1-phenyl-1H-pyrazol-5-yl)urea]
[1]
  EC50 Thallium Flux: complete lack of efficacy; also recorded: Inactive
[1]; listed as 2
  EC50 Thallium Flux: inactive
[2]
  inhibition at 10 µM: -1%
[3]
  inhibition at 10 µM: 1%
[4]
  inhibition at 10 µM: -2%
[5]
  inhibition at 10 µM: -17%
[6]
  inhibition at 10 µM: -4%
[7]
  inhibition at 10 µM: 3%
[8]
  inhibition at 10 µM: 5%
